Tested on: 242566-281-R-J2-PDC complex spheroid viability
Test: Anticancer human tumor 242566-281-R-J2-PDC patient-derived pancreatic carcinoma cell line growth inhibition [RAS]
Conditions: for IC50: curve of first compound; for viability, T/C: stronger effect = lower value
How it was run: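 Agents were tested in combination matrices in half-log decrements from a top concentration at or near clinical Cmax (10 microM if undetermined). Targets were multi-cell spheroids of tumour lines plus HUVEC and MSC stromal cells.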

[1] = second compound 0.0316 µM, first compound 0.0316 µM
[2] = second compound 0.0316 µM, first compound 0.1 µM
[3] = second compound 0.0316 µM, first compound 0.316 µM
[4] = second compound 0.0316 µM, first compound 1 µM
[5] = second compound 0.1 µM, first compound 0.0316 µM
[6] = second compound 0.1 µM, first compound 0.1 µM
[7] = second compound 0.1 µM, first compound 0.316 µM
[8] = second compound 0.1 µM, first compound 1 µM
[9] = second compound 0.316 µM, first compound 0.0316 µM
[10] = second compound 0.316 µM, first compound 0.1 µM
[11] = second compound 0.316 µM, first compound 0.316 µM
[12] = second compound 0.316 µM, first compound 1 µM
[13] = second compound 1 µM, first compound 0.0316 µM
[14] = second compound 1 µM, first compound 0.1 µM
[15] = second compound 1 µM, first compound 0.316 µM
[16] = second compound 1 µM, first compound 1 µM
[17] = second compound 3.16 µM, first compound 0.0316 µM
[18] = second compound 3.16 µM, first compound 0.1 µM
[19] = second compound 3.16 µM, first compound 0.316 µM
[20] = second compound 3.16 µM, first compound 1 µM
[21] = second compound 10 µM, first compound 0.0316 µM
[22] = second compound 10 µM, first compound 0.1 µM
[23] = second compound 10 µM, first compound 0.316 µM
[24] = second compound 10 µM, first compound 1 µM
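Further: spheroids exposed to compound for 7 days before readout.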
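Wherever viability, T/C is given: 100% = DMSO vehicle control wells.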

NC1c2ccccc2OC12CCN(c1cnc3c(N4CCCc5ncccc54)n[nH]c3n1)CC2 (centres undefined) + C#Cc1c(F)ccc2cc(O)cc(-c3ncc4c(N5CC6CCC(C5)N6)nc(OCC56CCCN5CC(F)C6)nc4c3F)c12
IC50 (second compound 0.0316 µM): 163 nM
IC50 (second compound 0.1 µM): 52.4 nM
IC50 (second compound 0.316 µM): < 31.6 nM
IC50 (second compound 1 µM): < 31.6 nM
IC50 (second compound 3.16 µM): < 31.6 nM
IC50 (second compound 10 µM): < 31.6 nM
viability, T/C [1]: 72.3%
viability, T/C [2]: 56.2%
viability, T/C [3]: 41.6%
viability, T/C [4]: 33.1%
viability, T/C (second compound 0.0316 µM, first compound 3.16 µM): 29.7%
viability, T/C (second compound 0.0316 µM, first compound 10 µM): 22.9%
viability, T/C [5]: 52.3%
viability, T/C [6]: 49%
viability, T/C [7]: 36.8%
viability, T/C [8]: 28.4%
viability, T/C (second compound 0.1 µM, first compound 3.16 µM): 34.1%
viability, T/C (second compound 0.1 µM, first compound 10 µM): 20.3%
viability, T/C [9]: 40.6%
viability, T/C [10]: 43%
viability, T/C [11]: 36.1%
viability, T/C [12]: 35.7%
viability, T/C (second compound 0.316 µM, first compound 3.16 µM): 31.8%
viability, T/C (second compound 0.316 µM, first compound 10 µM): 17.3%
viability, T/C [13]: 32.2%
viability, T/C [14]: 37.8%
viability, T/C [15]: 36.3%
viability, T/C [16]: 29%
viability, T/C (second compound 1 µM, first compound 3.16 µM): 34%
viability, T/C (second compound 1 µM, first compound 10 µM): 18.7%
viability, T/C [17]: 35.2%
viability, T/C [18]: 38.1%
viability, T/C [19]: 39.5%
viability, T/C [20]: 33.7%
viability, T/C (second compound 3.16 µM, first compound 3.16 µM): 34.9%
viability, T/C (second compound 3.16 µM, first compound 10 µM): 16.2%
viability, T/C [21]: 38.1%
viability, T/C [22]: 36.9%
viability, T/C [23]: 39.6%
viability, T/C [24]: 33%
viability, T/C (second compound 10 µM, first compound 3.16 µM): 35.5%
viability, T/C (second compound 10 µM, first compound 10 µM): 10.4%

Nc1ccn(C2OC(CO)C(O)C2(F)F)c(=O)n1 (centres undefined) + C#Cc1c(F)ccc2cc(O)cc(-c3ncc4c(N5CC6CCC(C5)N6)nc(OCC56CCCN5CC(F)C6)nc4c3F)c12
IC50 (second compound 0.0316 µM): 86 nM
IC50 (second compound 0.1 µM): 201 nM
IC50 (second compound 0.316 µM): 180 nM
IC50 (second compound 1 µM): 10.2 nM
IC50 (second compound 3.16 µM): 3.16 nM
IC50 (second compound 10 µM): < 3.16 nM
viability, T/C (second compound 0.0316 µM, first compound 0.00316 µM): 84.9%
viability, T/C (second compound 0.0316 µM, first compound 0.01 µM): 105%
viability, T/C [1]: 71.6%
viability, T/C [2]: 48.5%
viability, T/C [3]: 41.8%
viability, T/C [4]: 30.9%
viability, T/C (second compound 0.1 µM, first compound 0.00316 µM): 75.7%
viability, T/C (second compound 0.1 µM, first compound 0.01 µM): 88.7%
viability, T/C [5]: 70.6%
viability, T/C [6]: 54.7%
viability, T/C [7]: 51.6%
viability, T/C [8]: 39.8%
viability, T/C (second compound 0.316 µM, first compound 0.00316 µM): 64%
viability, T/C (second compound 0.316 µM, first compound 0.01 µM): 71.1%
viability, T/C [9]: 49.4%
viability, T/C [10]: 52.1%
viability, T/C [11]: 49.8%
viability, T/C [12]: 44%
viability, T/C (second compound 1 µM, first compound 0.00316 µM): 56.2%
viability, T/C (second compound 1 µM, first compound 0.01 µM): 55.5%
viability, T/C [13]: 40.8%
viability, T/C [14]: 41.4%
viability, T/C [15]: 45.7%
viability, T/C [16]: 41.9%
viability, T/C (second compound 3.16 µM, first compound 0.00316 µM): 38.6%
viability, T/C (second compound 3.16 µM, first compound 0.01 µM): 55.4%
viability, T/C [17]: 50.8%
viability, T/C [18]: 36.5%
viability, T/C [19]: 39%
viability, T/C [20]: 36.2%
viability, T/C (second compound 10 µM, first compound 0.00316 µM): 42.3%
viability, T/C (second compound 10 µM, first compound 0.01 µM): 53.9%
viability, T/C [21]: 48.9%
viability, T/C [22]: 38.3%
viability, T/C [23]: 34.1%
viability, T/C [24]: 30.7%
